Assay results as given in patent US8653075B2, “Therapeutic methods employing substituted piperidines which are CCR3 antagonists” (Boehringer Ingelheim International GmbH, priority 2009, dated 2014).

Biological target: T1, human chemokine receptor CCR3 (Homo sapiens, UniProt P51677)
T1 construct: expressed in transfected cells; host or cells: K562 cell line (hCCR3-C1 cells), membrane preparation
T1 sequence (P51677 1-355): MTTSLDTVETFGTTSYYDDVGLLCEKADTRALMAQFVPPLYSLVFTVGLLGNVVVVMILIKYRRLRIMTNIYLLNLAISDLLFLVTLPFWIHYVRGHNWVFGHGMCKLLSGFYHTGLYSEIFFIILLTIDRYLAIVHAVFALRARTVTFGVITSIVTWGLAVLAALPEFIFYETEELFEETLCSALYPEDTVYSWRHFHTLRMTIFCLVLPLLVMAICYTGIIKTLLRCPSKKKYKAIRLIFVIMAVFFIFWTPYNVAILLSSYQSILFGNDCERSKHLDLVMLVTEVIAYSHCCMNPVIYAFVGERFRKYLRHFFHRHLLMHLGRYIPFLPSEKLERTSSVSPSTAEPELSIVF
Test: CCR3 receptor binding assay (SPA, 125I-eotaxin-1 displacement, hCCR3-C1 K562 cell membranes)
Details: human Eotaxin-1 at human CCR3-Rezeptor; for inhibition at 1 µM: 1 μM test compound, read-out: CCR3 % inh @ 1 μM; for Ki: dose range 0.1 to 10000 nM
Summary of the method: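 SPA displacement of recombinant human 125I-eotaxin-1 (30.000 dpm per well) from membranes of CCR3-transfected K562 cells (0.5-10 μg protein/well) on WGA beads. Buffer was 25 mM HEPES, 25 mM MgCl2, 1 mM CaCl2, 0.1% BSA; incubation 2 h at room temperature. Specific binding was total minus NSB (unlabelled eotaxin-1), giving % inhibition and Ki.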

Cc1cc(CN2CCC(N3C(=O)CC[C@@H]3C(=O)Nc3cc(C(=O)N(C)C)ccn3)CC2)ccc1Cl [Example 147]
inhibition at 1 µM: 99% | Ki: 8 nM

Cc1cc(CN2CCC(N3C(=O)CC[C@@H]3C(=O)Nc3cccc(C(=O)NC4CC4)c3)CC2)ccc1Cl [Example 148]
inhibition at 1 µM: 99% | Ki: 10 nM

Cc1cc(CN2CCC(N3C(=O)CC[C@@H]3C(=O)Nc3cccc(C(=O)N(C)Cc4ccco4)c3)CC2)ccc1Cl [Example 149]
inhibition at 1 µM: 99% | Ki: 10 nM

CNC(=O)c1cc(C)nc(NC(=O)[C@H]2CCC(=O)N2C2CCN(Cc3ccc(Cl)c(C)c3)CC2)c1 [Example 150]
inhibition at 1 µM: 97% | Ki: 10 nM

CNC(=O)c1cccc(NC(=O)[C@H]2CCC(=O)N2C2CCN(Cc3ccc(Cl)c(C)c3)CC2)c1 [Example 151]
inhibition at 1 µM: 95% | Ki: 18 nM

Cc1cc(CN2CCC(N3C(=O)CC[C@@H]3C(=O)Nc3cccc(C(=O)N4CCC4)c3)CC2)ccc1Cl [Example 152]
inhibition at 1 µM: 100% | Ki: 12 nM

Cc1cc(CN2CCC(N3C(=O)CC[C@@H]3C(=O)Nc3cccc(C(=O)N4CCCCC4CO)c3)CC2)ccc1Cl (stereo partly drawn) [Example 153]
inhibition at 1 µM: 99% | Ki: 12 nM

Cc1nnc(NC(=O)c2cccc(NC(=O)[C@H]3CCC(=O)N3C3CCN(Cc4ccc(Cl)c(C)c4)CC3)c2)s1 [Example 154]
inhibition at 1 µM: 98% | Ki: 14 nM

CCn1cc(NC(=O)[C@H]2CCC(=O)N2C2CCN(Cc3ccc(Cl)c(C)c3)CC2)cc1C(=O)NC [Example 155]
inhibition at 1 µM: 98% | Ki: 15 nM

CCN(CCO)C(=O)c1cccc(NC(=O)[C@H]2CCC(=O)N2C2CCN(Cc3ccc(Cl)c(C)c3)CC2)c1 [Example 156]
inhibition at 1 µM: 98% | Ki: 15 nM

CCN(CC)C(=O)c1cccc(NC(=O)[C@H]2CCC(=O)N2C2CCN(Cc3ccc(Cl)c(C)c3)CC2)c1 [Example 157]
inhibition at 1 µM: 99% | Ki: 15 nM

Cc1cc(CN2CCC(N3C(=O)CC[C@@H]3C(=O)Nc3cccc(C(=O)NC(C)(C)C)c3)CC2)ccc1Cl [Example 158]
inhibition at 1 µM: 100% | Ki: 16 nM

Cc1cc(CN2CCC(N3C(=O)CC[C@@H]3C(=O)Nc3cccc(C(=O)N(C)CCO)c3)CC2)ccc1Cl [Example 159]
inhibition at 1 µM: 96% | Ki: 19 nM

Cc1cc(CN2CCC(N3C(=O)CC[C@@H]3C(=O)Nc3cc(C(=O)N4CCOCC4)ccn3)CC2)ccc1Cl [Example 160]
inhibition at 1 µM: 97% | Ki: 19 nM

Cc1cc(CN2CCC(N3C(=O)CC[C@@H]3C(=O)Nc3cccc(C(=O)NCC4CCCCO4)c3)CC2)ccc1Cl (stereo partly drawn) [Example 161]
inhibition at 1 µM: 97% | Ki: 20 nM

Cc1cc(CN2CCC(N3C(=O)CC[C@@H]3C(=O)Nc3cccc(C(=O)NC[C@@H]4CCCO4)c3)CC2)ccc1Cl [Example 162]
inhibition at 1 µM: 97% | Ki: 20 nM

Cc1cc(CN2CCC(N3C(=O)CC[C@@H]3C(=O)Nc3cccc(C(=O)NCC(C)(C)C)c3)CC2)ccc1Cl [Example 163]
inhibition at 1 µM: 99% | Ki: 23 nM

CCn1cc(NC(=O)[C@H]2CCC(=O)N2C2CCN(Cc3ccc(Cl)c(C)c3)CC2)cc1C(=O)N1CCCC1 [Example 164]
inhibition at 1 µM: 96% | Ki: 24 nM

CCNC(=O)c1cc(NC(=O)[C@H]2CCC(=O)N2C2CCN(Cc3ccc(Cl)c(C)c3)CC2)ccc1C [Example 165]
inhibition at 1 µM: 90% | Ki: 62 nM

CNC(=O)c1cccc(N(C)C(=O)[C@H]2CCC(=O)N2C2CCN(Cc3ccc(Cl)c(C)c3)CC2)c1 [Example 166]
inhibition at 1 µM: 60% | Ki: 905 nM

Cc1cc(NC(=O)[C@H]2CCC(=O)N2C2CCN(Cc3ccc(Cl)c(C)c3)CC2)cc(C(=O)N(C)C)c1 [Example 167]
inhibition at 1 µM: 98% | Ki: 6 nM

Cc1cc(CN2CCC(N3C(=O)CC[C@@H]3C(=O)Nc3cc(Cl)cc(C(=O)N(C)C)c3)CC2)ccc1Cl [Example 168]
inhibition at 1 µM: 99% | Ki: 4 nM

CNC(=O)c1cc(Cl)cc(NC(=O)[C@H]2CCC(=O)N2C2CCN(Cc3ccc(Cl)c(C)c3)CC2)c1 [Example 169]
inhibition at 1 µM: 99% | Ki: 19 nM

Cc1cc(CN2CCC(N3C(=O)CC[C@@H]3C(=O)Nc3cc(C(=O)N(C)CCO)cc(C(C)(C)C)c3)CC2)ccc1Cl [Example 170]
inhibition at 1 µM: 100% | Ki: 6 nM

Cc1cc(CN2CCC(N3C(=O)CC[C@@H]3C(=O)Nc3cc(C(=O)N(C)C)cc(C(C)(C)C)c3)CC2)ccc1Cl [Example 171]
inhibition at 1 µM: 99% | Ki: 5 nM

CNC(=O)c1cc(NC(=O)[C@H]2CCC(=O)N2C2CCN(Cc3ccc(Cl)c(C)c3)CC2)cc(C(C)(C)C)c1 [Example 172]
inhibition at 1 µM: 95% | Ki: 7 nM

COc1cc(NC(=O)[C@H]2CCC(=O)N2C2CCN(Cc3ccc(Cl)c(C)c3)CC2)cc(C(=O)N(C)C)c1 [Example 173]
inhibition at 1 µM: 99% | Ki: 13 nM

CNC(=O)c1cc(NC(=O)[C@H]2CCC(=O)N2C2CCN(Cc3ccc(Cl)c(C)c3)CC2)cc(OC)c1 [Example 174]
inhibition at 1 µM: 99% | Ki: 13 nM

Cc1cc(NC(=O)[C@H]2CCC(=O)N2C2CCN(Cc3ccc(Cl)c(C)c3)CC2)cc(C(=O)N(C)CCO)c1 [Example 175]
inhibition at 1 µM: 99% | Ki: 6 nM

Cc1cc(CN2CCC(N3C(=O)CC[C@@H]3C(=O)Nc3cc(F)cc(C(=O)N(C)C)c3)CC2)ccc1Cl [Example 176]
inhibition at 1 µM: 100% | Ki: 11 nM

CNC(=O)c1cc(F)cc(NC(=O)[C@H]2CCC(=O)N2C2CCN(Cc3ccc(Cl)c(C)c3)CC2)c1 [Example 177]
inhibition at 1 µM: 97% | Ki: 24 nM

COc1ccc(NC(=O)[C@H]2CCC(=O)N2C2CCN(Cc3ccc(Cl)c(C)c3)CC2)cc1C(=O)N(C)CCO [Example 178]
inhibition at 1 µM: 86% | Ki: 108 nM

COc1ccc(NC(=O)[C@H]2CCC(=O)N2C2CCN(Cc3ccc(Cl)c(C)c3)CC2)cc1C(=O)N(C)C [Example 179]
inhibition at 1 µM: 95% | Ki: 34 nM

CNC(=O)c1cc(NC(=O)[C@H]2CCC(=O)N2C2CCN(Cc3ccc(Cl)c(C)c3)CC2)ccc1OC [Example 180]
inhibition at 1 µM: 97% | Ki: 16 nM

Cc1cc(CN2CCC(N3C(=O)CC[C@@H]3C(=O)Nc3cc(C(=O)N(C)C)cc(C(C)C)n3)CC2)ccc1Cl [Example 182]
inhibition at 1 µM: 99% | Ki: 4 nM

COc1cc(C(=O)N(C)C)cc(NC(=O)[C@H]2CCC(=O)N2C2CCN(Cc3ccc(Cl)c(C)c3)CC2)n1 [Example 183]
inhibition at 1 µM: 75% | Ki: 232 nM

CCc1cc(C(=O)N(C)C)cc(NC(=O)[C@H]2CCC(=O)N2C2CCN(Cc3ccc(Cl)c(C)c3)CC2)n1 [Example 184]
inhibition at 1 µM: 100% | Ki: 8 nM

Cc1cc(CN2CCC(N3C(=O)CC[C@@H]3C(=O)Nc3cc(C(=O)N(C)C)cc(-c4nnnn4C)c3)CC2)ccc1Cl [Example 185]
inhibition at 1 µM: 98% | Ki: 1 nM

Cc1cc(CN2CCC(N3C(=O)CC[C@@H]3C(=O)Nc3cc(C(=O)N(C)CCO)cc(-c4nnnn4C)c3)CC2)ccc1Cl [Example 186]
inhibition at 1 µM: 99% | Ki: 1 nM

Cc1cc(CN2CCC(N3C(=O)CC[C@@H]3C(=O)Nc3nc(C(C)C)c(C(=O)N(C)C)s3)CC2)ccc1Cl [Example 189]
inhibition at 1 µM: 100% | Ki: 4 nM

CNC(=O)c1sc(NC(=O)[C@H]2CCC(=O)N2C2CCN(Cc3ccc(Cl)c(C)c3)CC2)nc1C [Example 190]
inhibition at 1 µM: 100% | Ki: 6 nM

Cc1cc(CN2CCC(N3C(=O)CCC3C(=O)Nc3cc(-c4c(C)noc4C)ccn3)CC2)ccc1Cl (stereo not drawn) [Example 192]
inhibition at 1 µM: 96%

Cc1cc(CN2CCC(N3C(=O)CC[C@@H]3C(=O)Nc3cc(-c4c(C)noc4C)ccn3)CC2)ccc1Cl [Example 192]
Ki: 6 nM

Cc1cc(-c2noc(C)n2)cc(NC(=O)[C@H]2CCC(=O)N2C2CCN(Cc3ccc(Cl)c(C)c3)CC2)n1 [Example 193]
inhibition at 1 µM: 99% | Ki: 19 nM

Cc1cc(-c2nnnn2C)cc(NC(=O)[C@H]2CCC(=O)N2C2CCN(Cc3ccc(Cl)c(C)c3)CC2)n1 [Example 196]
inhibition at 1 µM: 89% | Ki: 95 nM

CN1C[C@H](C(=O)Nc2cc(C3CC3)nn2C)N(C2CCN(Cc3ccc(OC(F)(F)F)c(F)c3)CC2)C1=O [Example 197]
inhibition at 1 µM: 44% | Ki: 1250 nM

CN1C[C@H](C(=O)Nc2cc(C3CC3)nn2C)N(C2CCN(Cc3ccc(Cl)c(Cl)c3)CC2)C1=O [Example 198]
inhibition at 1 µM: 91% | Ki: 67 nM

CN1C[C@H](C(=O)Nc2cc(C3CC3)nn2C)N(C2CCN(Cc3ccc(Cl)c(C(F)(F)F)c3)CC2)C1=O [Example 199]
inhibition at 1 µM: 66% | Ki: 453 nM

CNC(=O)c1cccc(NC(=O)[C@H]2CCC(=O)N2C2CCN(Cc3ccc(Br)cc3)CC2)c1 [Example 200]
inhibition at 1 µM: 86% | Ki: 114 nM

CNC(=O)c1cccc(NC(=O)[C@H]2CCC(=O)N2C2CCN(Cc3ccc(Cl)cc3)CC2)c1 [Example 201]
inhibition at 1 µM: 86% | Ki: 119 nM

CNC(=O)c1cccc(NC(=O)[C@H]2CCC(=O)N2C2CCN(Cc3ccc(F)cc3)CC2)c1 [Example 202]
inhibition at 1 µM: 69% | Ki: 390 nM

CNC(=O)c1cccc(NC(=O)[C@H]2CCC(=O)N2C2CCN(Cc3ccc(F)c(Cl)c3)CC2)c1 [Example 203]
inhibition at 1 µM: 75% | Ki: 237 nM
